Test results: the OligoGym collection
Bases are written 5' to 3'; sugars and linkages follow in the same order, as letters with counts (s phosphorothioate, o phosphodiester; PS: all linkages phosphorothioate). C may stand for cytosine or 5-methylcytosine; the collection does not tell. l = locked nucleic acid (LNA); d = 2'-deoxy (DNA)

Target: HIF1A
Test: HeLa, 100 nM transfected, 24 h, mean of 3
Conditions: ASO

GTTACTGCCTTCTTAC (sugars lldllddddddldddl, PS)
caspase activation (% of PBS control): 260

GTTACTGCCTTCTTAC (sugars lldllddddddlddll, PS)
caspase activation (% of PBS control): 261

GTTACTGCCTTCTTAC (sugars lldllddddddldldl, PS)
caspase activation (% of PBS control): 294

GTTACTGCCTTCTTAC (sugars lldllddddddldlll, PS)
caspase activation (% of PBS control): 278

GTTACTGCCTTCTTAC (sugars lldllddddddllddl, PS)
caspase activation (% of PBS control): 356

GTTACTGCCTTCTTAC (sugars lldllddddddlldll, PS)
caspase activation (% of PBS control): 289

GTTACTGCCTTCTTAC (sugars lldllddddddllldl, PS)
caspase activation (% of PBS control): 506

GTTACTGCCTTCTTAC (sugars lllddddddddldldl, PS)
caspase activation (% of PBS control): 233

GTTACTGCCTTCTTAC (sugars llldlddddddddldl, PS)
caspase activation (% of PBS control): 271

GTTACTGCCTTCTTAC (sugars llldldddddddlddl, PS)
caspase activation (% of PBS control): 277

GTTACTGCCTTCTTAC (sugars llldldddddddldll, PS)
caspase activation (% of PBS control): 274

GTTACTGCCTTCTTAC (sugars llldldddddddlldl, PS)
caspase activation (% of PBS control): 341

GTTACTGCCTTCTTAC (sugars llldlddddddldddl, PS)
caspase activation (% of PBS control): 272

GTTACTGCCTTCTTAC (sugars llldlddddddlddll, PS)
caspase activation (% of PBS control): 283

GTTACTGCCTTCTTAC (sugars llldlddddddldldl, PS)
caspase activation (% of PBS control): 316

GTTACTGCCTTCTTAC (sugars llldlddddddldlll, PS)
caspase activation (% of PBS control): 273

GTTACTGCCTTCTTAC (sugars llldlddddddllddl, PS)
caspase activation (% of PBS control): 308

GTTACTGCCTTCTTAC (sugars llldlddddddlldll, PS)
caspase activation (% of PBS control): 307

GTTACTGCCTTCTTAC (sugars llldlddddddllldl, PS)
caspase activation (% of PBS control): 485

GTTACTGCCTTCTTAC (sugars lllldddddddldldl, PS)
caspase activation (% of PBS control): 281

GTTACTGCCTTCTTAC (sugars lllllddddddldldl, PS)
caspase activation (% of PBS control): 467

TACTGCCTTCTTA (sugars l1 d1 l1 d7 l3, PS)
caspase activation (% of PBS control): 494

TACTGCCTTCTTA (sugars l1 d1 l1 d8 l2, PS)
caspase activation (% of PBS control): 277

TACTGCCTTCTTA (sugars l1 d1 l1 d9 l1, PS)
caspase activation (% of PBS control): 193

TACTGCCTTCTTA (sugars l1 d1 l2 d6 l3, PS)
caspase activation (% of PBS control): 585

TACTGCCTTCTTA (sugars l1 d1 l2 d7 l2, PS)
caspase activation (% of PBS control): 448

TACTGCCTTCTTA (sugars l1 d1 l2 d8 l1, PS)
caspase activation (% of PBS control): 270

TACTGCCTTCTTA (sugars l1 d2 l1 d6 l3, PS)
caspase activation (% of PBS control): 246

TACTGCCTTCTTA (sugars l1 d2 l1 d7 l2, PS)
caspase activation (% of PBS control): 156

TACTGCCTTCTTA (sugars l1 d2 l1 d8 l1, PS)
caspase activation (% of PBS control): 118

TACTGCCTTCTTA (sugars l1 d9 l1 d1 l1, PS)
caspase activation (% of PBS control): 142

TACTGCCTTCTTA (sugars l1 d9 l3, PS)
caspase activation (% of PBS control): 158

TACTGCCTTCTTA (sugars l1 d10 l2, PS)
caspase activation (% of PBS control): 130

TACTGCCTTCTTA (sugars l1 d11 l1, PS)
caspase activation (% of PBS control): 112

TACTGCCTTCTTA (sugars l2 d1 l1 d6 l3, PS)
caspase activation (% of PBS control): 427

TACTGCCTTCTTA (sugars l2 d1 l1 d7 l2, PS)
caspase activation (% of PBS control): 295

TACTGCCTTCTTA (sugars l2 d1 l1 d8 l1, PS)
caspase activation (% of PBS control): 222

TACTGCCTTCTTA (sugars l2 d8 l1 d1 l1, PS)
caspase activation (% of PBS control): 223

TACTGCCTTCTTA (sugars l2 d8 l3, PS)
caspase activation (% of PBS control): 363

TACTGCCTTCTTA (sugars l2 d9 l2, PS)
caspase activation (% of PBS control): 184

TACTGCCTTCTTA (sugars l2 d10 l1, PS)
caspase activation (% of PBS control): 152

TACTGCCTTCTTA (sugars l3 d7 l1 d1 l1, PS)
caspase activation (% of PBS control): 368

TACTGCCTTCTTA (sugars l3 d7 l3, PS)
caspase activation (% of PBS control): 489

TACTGCCTTCTTA (sugars l3 d8 l2, PS)
caspase activation (% of PBS control): 317

TACTGCCTTCTTA (sugars l3 d9 l1, PS)
caspase activation (% of PBS control): 286

TACTGCCTTCTTA (sugars l4 d6 l1 d1 l1, PS)
caspase activation (% of PBS control): 508

TACTGCCTTCTTA (sugars l4 d6 l3, PS)
caspase activation (% of PBS control): 404

TACTGCCTTCTTA (sugars l4 d7 l2, PS)
caspase activation (% of PBS control): 594

TACTGCCTTCTTA (sugars l4 d8 l1, PS)
caspase activation (% of PBS control): 435

TACTGCCTTCTTA (sugars lddlddddddldl, PS)
caspase activation (% of PBS control): 133

TACTGCCTTCTTA (sugars ldldddddddldl, PS)
caspase activation (% of PBS control): 237

TACTGCCTTCTTA (sugars ldllddddddldl, PS)
caspase activation (% of PBS control): 317

TACTGCCTTCTTA (sugars lldlddddddldl, PS)
caspase activation (% of PBS control): 293

TGGCAAGCATCCT (sugars l1 d1 l1 d7 l3, PS)
caspase activation (% of PBS control): 127

TGGCAAGCATCCT (sugars l1 d1 l1 d8 l2, PS)
caspase activation (% of PBS control): 145

TGGCAAGCATCCT (sugars l1 d1 l1 d9 l1, PS)
caspase activation (% of PBS control): 160

TGGCAAGCATCCT (sugars l1 d1 l2 d6 l3, PS)
caspase activation (% of PBS control): 260

TGGCAAGCATCCT (sugars l1 d1 l2 d7 l2, PS)
caspase activation (% of PBS control): 353

TGGCAAGCATCCT (sugars l1 d1 l2 d8 l1, PS)
caspase activation (% of PBS control): 327

TGGCAAGCATCCT (sugars l1 d2 l1 d6 l3, PS)
caspase activation (% of PBS control): 112

TGGCAAGCATCCT (sugars l1 d2 l1 d7 l2, PS)
caspase activation (% of PBS control): 157

TGGCAAGCATCCT (sugars l1 d2 l1 d8 l1, PS)
caspase activation (% of PBS control): 178

TGGCAAGCATCCT (sugars l1 d9 l1 d1 l1, PS)
caspase activation (% of PBS control): 242

TGGCAAGCATCCT (sugars l1 d9 l3, PS)
caspase activation (% of PBS control): 330

TGGCAAGCATCCT (sugars l1 d10 l2, PS)
caspase activation (% of PBS control): 253

TGGCAAGCATCCT (sugars l1 d11 l1, PS)
caspase activation (% of PBS control): 123

TGGCAAGCATCCT (sugars l2 d1 l1 d6 l3, PS)
caspase activation (% of PBS control): 259

TGGCAAGCATCCT (sugars l2 d1 l1 d7 l2, PS)
caspase activation (% of PBS control): 361

TGGCAAGCATCCT (sugars l2 d1 l1 d8 l1, PS)
caspase activation (% of PBS control): 383

TGGCAAGCATCCT (sugars l2 d8 l1 d1 l1, PS)
caspase activation (% of PBS control): 407

TGGCAAGCATCCT (sugars l2 d8 l3, PS)
caspase activation (% of PBS control): 315

TGGCAAGCATCCT (sugars l2 d9 l2, PS)
caspase activation (% of PBS control): 434

TGGCAAGCATCCT (sugars l2 d10 l1, PS)
caspase activation (% of PBS control): 364

TGGCAAGCATCCT (sugars l3 d7 l1 d1 l1, PS)
caspase activation (% of PBS control): 268

TGGCAAGCATCCT (sugars l3 d7 l3, PS)
caspase activation (% of PBS control): 249

TGGCAAGCATCCT (sugars l3 d8 l2, PS)
caspase activation (% of PBS control): 217

TGGCAAGCATCCT (sugars l3 d9 l1, PS)
caspase activation (% of PBS control): 287

TGGCAAGCATCCT (sugars l4 d6 l1 d1 l1, PS)
caspase activation (% of PBS control): 480

TGGCAAGCATCCT (sugars l4 d6 l3, PS)
caspase activation (% of PBS control): 361

TGGCAAGCATCCT (sugars l4 d7 l2, PS)
caspase activation (% of PBS control): 447

TGGCAAGCATCCT (sugars l4 d8 l1, PS)
caspase activation (% of PBS control): 471

TGGCAAGCATCCT (sugars lddlddddddldl, PS)
caspase activation (% of PBS control): 132

TGGCAAGCATCCT (sugars ldldddddddldl, PS)
caspase activation (% of PBS control): 170

TGGCAAGCATCCT (sugars ldllddddddldl, PS)
caspase activation (% of PBS control): 377

TGGCAAGCATCCT (sugars lldlddddddldl, PS)
caspase activation (% of PBS control): 369

TGGCAAGCATCCTGTA (sugars l1 d1 l1 d8 l5, PS)
caspase activation (% of PBS control): 417

TGGCAAGCATCCTGTA (sugars l1 d1 l1 d9 l4, PS)
caspase activation (% of PBS control): 379

TGGCAAGCATCCTGTA (sugars l1 d1 l1 d10 l3, PS)
caspase activation (% of PBS control): 188

TGGCAAGCATCCTGTA (sugars l1 d1 l1 d11 l2, PS)
caspase activation (% of PBS control): 135

TGGCAAGCATCCTGTA (sugars l1 d1 l1 d12 l1, PS)
caspase activation (% of PBS control): 180

TGGCAAGCATCCTGTA (sugars l1 d1 l2 d7 l5, PS)
caspase activation (% of PBS control): 415

TGGCAAGCATCCTGTA (sugars l1 d1 l2 d8 l4, PS)
caspase activation (% of PBS control): 398

TGGCAAGCATCCTGTA (sugars l1 d1 l2 d9 l3, PS)
caspase activation (% of PBS control): 479

TGGCAAGCATCCTGTA (sugars l1 d1 l2 d10 l2, PS)
caspase activation (% of PBS control): 342

TGGCAAGCATCCTGTA (sugars l1 d1 l2 d11 l1, PS)
caspase activation (% of PBS control): 324

TGGCAAGCATCCTGTA (sugars l1 d1 l3 d6 l5, PS)
caspase activation (% of PBS control): 482

TGGCAAGCATCCTGTA (sugars l1 d1 l3 d7 l4, PS)
caspase activation (% of PBS control): 395

TGGCAAGCATCCTGTA (sugars l1 d1 l3 d8 l3, PS)
caspase activation (% of PBS control): 448

TGGCAAGCATCCTGTA (sugars l1 d1 l3 d9 l2, PS)
caspase activation (% of PBS control): 463

TGGCAAGCATCCTGTA (sugars l1 d1 l3 d10 l1, PS)
caspase activation (% of PBS control): 595

TGGCAAGCATCCTGTA (sugars l1 d2 l1 d7 l5, PS)
caspase activation (% of PBS control): 416

TGGCAAGCATCCTGTA (sugars l1 d2 l1 d8 l4, PS)
caspase activation (% of PBS control): 398

TGGCAAGCATCCTGTA (sugars l1 d2 l1 d9 l3, PS)
caspase activation (% of PBS control): 254
